Values of other authors as cited in PMC3726058 (European journal of pharmacology, 2010).

Columns and labels:
σ1 versus σ2 = details: rat brain membranes; ref Klouz et al., 2003; Matsuno et al., 1996
adrenergic α2 = details: read-out: Ki α2; ref Yous et al., 2005
histamine H1 = details: read-out: Ki H1; ref Yous et al., 2005
σ1 over the σ2 subtype = details: ref Bowen, 1993

COc1ccc(CN2CCN(Cc3ccccc3)CC2)c(O)c1OC [BHDP]
affinity for σ1 versus σ2 (σ1 versus σ2): approximately 100 fold

COc1ccc(CCN2CCN(CCCc3ccccc3)CC2)cc1OC [SA4503]
affinity for σ1 versus σ2 (σ1 versus σ2): approximately 100 fold

CCCc1ccc2c(c1)sc(=O)n2CCN1CCCCCC1 [SN56, 3-(2-(azepan-1-yl)ethyl)-6-propylbenzo[d]thiazol-2(3H)-one]
Ki (adrenergic α2): 205 nM | Ki (histamine H1): 311 nM

CC(C)=CCN1CC[C@]2(C)c3cc(O)ccc3C[C@H]1[C@H]2C [[^3H](+)-Pentazocine]
preference for σ1 over σ2 subtype (σ1 over the σ2 subtype): > 700 fold
